Data as given in patent US20210332139A1, “MODULATION OF LEUKOCYTE ACTIVITY IN TREATMENT OF NEUROINFLAMMATORY DEGENERATIVE DISEASE” (Leuvas Therapeutics, priority 2013, published 2021).
Where “and” joins values, the source holds several entries; their conditions need not be identical. Identical values can stand only once.

Legend:
Type in all cases: cell-based
human neutrophils [1] = experiment: Rapid adhesion of human neutrophils to fibrinogen and ICAM-1; details: 0.1 μM, mean+/−SD
Text: (§1) All data are expressed as the mean+/−SD of bound cells in 0.2 mm^2 from three independent experiments made in duplicate.

mouse neutrophils [2] = experiment: Rapid adhesion of mouse neutrophils to fibrinogen and ICAM-1; details: fMLP 1 μM, mean+/−SD
Text: as §1

neutrophils = experiment: Rapid adhesion of neutrophils, soluble versus fibrillary Aβ1-42; details: fMLP, concentration not given, mean+/−SD
Text: Although two-times less efficient than the soluble form, fibrillary Aβ triggered a significant increase of rapid neutrophil adhesion on both ICAM-1 and fibrinogen (Table 8; data are expressed as the mean+/−SD of bound cells in 0.2 mm^2 from three independent experiments made in duplicate).

human neutrophils [3] = experiment: Rapid human neutrophil adhesion to ICAM-1, inhibition by bocMLF and PTx; details: 0.1 μM fMLP
Method: It is known that one of the receptors for Aβ is the receptor for fMLP, formylpeptide chemotactic receptor (FPR). To evaluate the contribution of this GPCR receptor on Aβ-dependent neutrophil adhesion, we inhibited its function using boc-MLF, a formyl-peptide chemotactic receptor antagonist. Human neutrophils were incubated for 2 minutes with buffer (control) or with oligomeric Aβ. 0.1 μM fMLP was used as a positive control. Values are expressed as the mean counts of bound cells in 0.2 mm^2 from three independent experiments in duplicate. Error bars represent SD. […] To exclude the possibility that rapid adhesion triggering was a consequence of a generic plasma membrane alteration due to the lipophilic nature of Aβ, we evaluated rapid adhesion in lymphocytes, which are known to lack fMLP receptors.

LFA-1 = LFA-1 affinity state in human neutrophils (conformer-specific antibodies, cytofluorimetry); details: 0.1 μM, 10 s, mean fluorescence intensity, ctrl = 1
Text: Neutrophil arrest is rapidly triggered by chemokines or other chemoattractants and is mediated by the binding of LFA-1 integrin to its vascular ligand ICAM-1. Ligation of specific heterotrimeric GPCRs by chemokines induces integrins to undergo a dramatic transition from a bent low-affinity conformation to extended intermediate- and high-affinity conformations, which leads to opening of the ligand-binding pocket. We hypothesized that Aβ may trigger intermediate and/or high affinity state of LFA-1 integrin and studied the effect of Aβ1-42 oligomers on human LFA-1 affinity using KIM127 and 327A conformer-specific antibodies for intermediate- and high-affinity state respectively.
The cells were stimulated for 10 s with 0.5 μmol/L of CXCL12, 0.1 μM fMLP, 20 μM Aβ1-42, or 20 μM Aβ42-1 under stirring at 37° C. After rapid washing, cells were stained with FITC-conjugated secondary polyclonal antibody and analyzed by cytofluorimetric quantification. Data are mean fluorescence intensity +/−SD from three independent experiments.

human neutrophils [4] = experiment: Isoluminol chemiluminescence ROS assay, human neutrophils; details: human neutrophils on fibrinogen, mean+/−SD
Method: One of the mechanisms of neuronal damage by beta-amyloid in Alzheimer's disease is the generation of reactive oxygen species (ROS). We determined whether Aβ1-42 oligomers induce ROS production in neutrophils by using a chemiluminescence assay.
(§2) Isoluminol-based chemiluminescence assays were performed in HGCa in the presence of horseradish peroxidase (HRP) and isoluminol (both from Sigma-Aldrich) in a temperature-controlled Multilabel Count Victor X5 (Perkin Elmer). Assays were run in dark 96 well plates precoated with 250 μg/ml human fibrinogen in HGCa containing (final concentration): 100 μM isoluminol and 8 U/ml HRP. After addition of 1×10^5 human neutrophils or 7.5×10^5 mouse neutrophils, plates were left at 37° C. for 5-10 min and the reaction started by addition of the stimulus. Light emission was recorded every minute.
(§3) We used the chemotactic peptide fMLP as positive control. […] Data are mean+/−SD for three independent experiments.

mouse neutrophils [5] = experiment: Isoluminol chemiluminescence ROS assay, mouse neutrophils; details: mean+/−SD
Method: as §2, §3
Data are mean+/−SD counts per second.

human primary PMNs = experiment: Static adhesion of human primary PMNs to ICAM-1 with signaling inhibitors; details: 50 nM fMLP, 1 min
Method: As a model system, human primary PMNs were isolated form healthy donors stimulated to very rapid adhesion to purified human ICAM-1, ligand for the β2 integrins LFA-1 and Maci. fMLP (the classical chemoattractant) was the positive control. […] PMNs were treated for 30 min. with different concentrations of inhibitors followed by stimulation for 1 min with 50 nM fMLP or with 10 μM Aβ. The number of adherent cells was quantified by computer-assisted evaluation. Statistical analysis was SD.

**Q.** Which “Rapid adhesion to Fibrinogen” value (human neutrophils [1]) does the source give for fMLP here?
**A.** The value was 361.5 ± 88.2 bound cells in 0.2 mm^2.

**Q.** What about the “Rapid adhesion to ICAM-1” value (human neutrophils [1]) of the same substance?
**A.** The value was 203.8 ± 29.2 bound cells in 0.2 mm^2.

**Q.** And the “Rapid adhesion to Fibrinogen” value (mouse neutrophils [2])?
**A.** Its value is 72.40 ± 14.33 bound cells in 0.2 mm^2.

**Q.** And the “Rapid adhesion to ICAM-1” value (mouse neutrophils [2])?
**A.** Its value is 183.6 ± 23.9 bound cells in 0.2 mm^2.

**Q.** And the “Rapid adhesion to Fibrinogen” value (neutrophils)?
**A.** Its value is 285.5 ± 14.6 bound cells in 0.2 mm^2.

**Q.** And the “Rapid adhesion to ICAM-1” value (neutrophils)?
**A.** The value was 578.5 ± 66.5 bound cells in 0.2 mm^2.

**Q.** And the “Neutrophil adhesion to ICAM-1, stimulus alone (Ctrl, no inhibitor)” value (human neutrophils [3])?
**A.** The value was 497.1 ± 33.3 bound cells in 0.2 mm^2 and 484.1 ± 39.7 bound cells in 0.2 mm^2.

**Q.** What about the “327A (high-affinity state of LFA-1)” value (LFA-1) of the same substance?
**A.** Its value is 4.35 ± 0.63.

**Q.** What about the “KIM127 (intermediate-affinity state of LFA-1)” value (LFA-1) of the same substance?
**A.** Its value is 2.94 ± 0.21.

**Q.** And the “ROS generation (chemiluminescence)” value (human neutrophils [4]; 1 min)?
**A.** The value was 908 ± 137.

**Q.** What about the “ROS generation (chemiluminescence)” value (human neutrophils [4]; 2 min) of the same substance?
**A.** The value was 783 ± 108.

**Q.** And the “ROS generation (chemiluminescence)” value (human neutrophils [4]; 3 min)?
**A.** Its value is 515 ± 103.

**Q.** And the “ROS generation (chemiluminescence)” value (human neutrophils [4]; 4 min)?
**A.** Its value is 325 ± 158.

**Q.** And the “ROS generation (chemiluminescence)” value (human neutrophils [4]; 5 min)?
**A.** Its value is 272 ± 134.

**Q.** What about the “ROS generation (chemiluminescence)” value (mouse neutrophils [5]; 1 min) of the same substance?
**A.** Its value is 599 ± 199 counts per second.

**Q.** What about the “ROS generation (chemiluminescence)” value (mouse neutrophils [5]; 2 min) of the same substance?
**A.** Its value is 231 ± 91 counts per second.

**Q.** And the “ROS generation (chemiluminescence)” value (mouse neutrophils [5]; 3 min)?
**A.** Its value is 90 ± 17 counts per second.

**Q.** What about the “ROS generation (chemiluminescence)” value (mouse neutrophils [5]; 4 min) of the same substance?
**A.** Its value is 65 ± 36 counts per second.

**Q.** What about the “ROS generation (chemiluminescence)” value (mouse neutrophils [5]; 5 min) of the same substance?
**A.** The value was 59 ± 54 counts per second.

**Q.** What about the “Adherent hPMNs to ICAM-1, fMLP, Mean, Control (no inhibitor)” value (human primary PMNs) of the same substance?
**A.** Its value is 444.6 and 500.8 and 433.5 and 463.1 and 484.1 and 486.8.
